Data on 5 molecules can be found in patent US9896730B2, “Use of EMT gene signatures in cancer drug discovery, diagnostics, and treatment” (OSI Pharmaceuticals, LLC, priority 2011, dated 2018).

Entries after “also recorded” stand apart in the source; their conditions may differ.

For assay [1], the system named is lung tumors. Particulars: adenocarcinoma patients versus squamous cell carcinoma patients; cited from earlier work.
Assay [2] concerns advanced, treatment-refractory NSCLC. Particulars: Phase III, monotherapy, patients with advanced; cited from earlier work.
The subject of assay [3] is H1650 cells. As to the kind of experiment: Cell proliferation (Cell Titer Glo): erlotinib sensitivity in H1650 EMT model. The class given is cell-based, human. Particulars: H1650 cells in vitro, before or after EMT induction. As to the method:
(§1) Measurement of Cell Proliferation: Cell proliferation was determined using the Cell Titer Glo assay (Promega Corporation, Madison, Wis.). Cell lines were seeded at a density of 3000 cells per well in a 96-well plate. For assessment of drug effects on proliferation, 24 hours after plating, cells were dosed with varying concentrations of drug, either as a single agent or in combination. The signal for Cell Titer Glo was determined 72 hours after dosing.
(§2) Ligand-driven EMT models: NCI-H358 cells were cultured in RPMI medium (Gibco #21870) with 10% fetal bovine serum (Sigma), 1 mM sodium pyruvate (Gibco #11360), 2 mM L-glutamine (Gibco #25030) and 10 mM HEPES (Gibco #15630). For ligand treatment, cells were seeded in normal growth medium and stimulated the following day (Day 0) with 100 ng/ml HGF (Peprotech #100-39), 100 ng/ml OSM (R and D systems, 295-OM), 2.5 ng/ml TGFβ1 (EMD Biosciences #616450) or combinations of the three. Medium was changed and fresh ligand was added on day 4 and day 6 after stimulation, such that samples were stimulated with fresh ligand 24 hrs prior to RNA isolation. For analysis containing drug treatments, DMSO or Drug was added to the samples at time of ligand treatments. Samples were taken for RNA Day 1, Day 4 and Day 7. […]

Assay [4] relates to H358 cells. Put plainly: Cell proliferation (Cell Titer Glo): erlotinib sensitivity in H358 EMT models. The assay is classed as cell-based, human. Particulars: ligand- and snai1-induced EMT. The protocol:
as §1, §2
On the technique in general: Cellular ATP, detected with luciferase, serves as a proxy for viable cell number.

The subject of assay [5] is H358 cells. Put plainly: 88 gene EMTGS qPCR and EMT characterization, ligand-driven H358 EMT model. The assay is classed as cell-based, human. Particulars: 7 day ligand stimulation. As to the method: as §2, with “7. NCI-H1650 and NCI-H292 cells were grown in RPM medium (Gibco #21870) with 10% fetal bovine serum (Sigma), 1 mM sodium pyruvate (Gibco #11360), 2 mM L-glutamine (Gibco #25030) and 10 mM HEPES (Gibco #15630). CFPAC1 cells (ATCC #CRL-1918) were cultured in DMEM (Gibco #11960) supplemented with 10% FBS (Sigma), 2 mM L-glutamine (Gibco #25030). A549 cells were cultured in MEM with 10% fetal bovine serum, 2 mM L-glutamine and 1 mM sodium pyruvate. Cells were treated with ligand for 7 days and harvested as described for NCI-H358 cells in [249] unless otherwise noted.” for “7.”
(§3) Normalization genes used with 88 gene EMTGS for RT-PCR Analysis: The genes GTF2B, GAPDH, SDHA, and ACTB were chosen as normalization genes in qPCR analysis. […] The Delta Ct is then calculated as follows: Delta Ct=(Ct value of Gene X)−(Geometric mean of all normalization genes) For calculation of fold change between a control sample and a treated sample: Control sample=2^(−Delta Ct) Treated sample=2^(−Delta Ct) Fold change=Treated sample/Control sample Values below 1 (ratios) are converted to fold change by multiplying by −(1/X)
In general terms: Quantitative PCR measures a nucleic acid by following its amplification.

In assay [6] the test system is A549 cells. As to the kind of experiment: 88 gene EMTGS qPCR, A549 cells treated with TNF and TAK1 siRNA. The class given is cell-based, human. Particulars: relative to untreated cells. The protocol:
as §2, §3

Regarding `C#Cc1cccc(Nc2ncnc3cc(OCCOC)c(OCCOC)cc23)c1` [erlotinib, [6,7-bis(2-methoxyethoxy)-4-quinazolin-4-yl]-(3-ethynylphenyl)amine], the clinical response entry in assay [1] is recorded as “respond better”. Further, in assay [2], the disease progression entry was “delayed disease progression”, the survival entry was “significantly prolonged survival” and the “worsening of lung cancer-related symptoms” value is given as “delayed worsening”. For the same molecule, the sensitivity to erlotinib result in assay [3] is on record as “not sensitive”. In addition, the “sensitivity to erlotinib after EMT induction” value in assay [4] is listed as “decreased sensitivity; also recorded: decreases”.

On to “HGF: hepatocyte growth factor, EMT-inducing ligand”, for which the “extent of EMT induced (morphology, biomarker, phenotypic changes)” value in assay [5] is “partial EMT”.

With “TGFβ: transforming growth factor β, EMT-inducing ligand”, in assay [5], the “extent of EMT induced (morphology, biomarker, phenotypic changes)” value is reported as “more advanced EMT”.

Take TNFa: in assay [6], the “effect on epithelial genes of 88 gene EMTGS” value is listed as “downregulation” and the “effect on mesenchymal genes of 88 gene EMTGS” value is “upregulation”.

B1: OSM: oncostatin M, EMT-inducing ligand (protein, UniProt P13725 26-221, looked up)
Oncostatin-M: AAIGSCSKEYRVLLGQLQKQTDLMQDTSRLLDPYIRIQGLDVPKLREHCRERPGAFPSEETLRGLGRRGFLQTLNATLGCVLHRLADLEQRLPKAQDLERSGLNIEDLEKLQMARPNILGLRNNIYCMAQLLDNSDTAEPTKAGRGASQPPTPTPASDAFQRKLEGCRFLHGYHRFMHSVGRVFSKWGESPNRSRR
Consider B1, for which the “extent of EMT induced (morphology, biomarker, phenotypic changes)” value in assay [5] is listed as “partial EMT”.
